This experiment addresses T1, CXCR4 (C-X-C chemokine receptor type 4) (Homo sapiens, UniProt P61073).
T1 construct: purified membrane fractions of HEK293 cells overexpressing CXCR4
In words: […]CXCL12 radioligand displacement on CXCR4 membranes. The format is binding. On the technique in general: In a radioligand displacement assay an active substance lowers the binding of a labelled ligand.

The structures appear in SMILES notation.

T1 sequence (P61073 whole entry): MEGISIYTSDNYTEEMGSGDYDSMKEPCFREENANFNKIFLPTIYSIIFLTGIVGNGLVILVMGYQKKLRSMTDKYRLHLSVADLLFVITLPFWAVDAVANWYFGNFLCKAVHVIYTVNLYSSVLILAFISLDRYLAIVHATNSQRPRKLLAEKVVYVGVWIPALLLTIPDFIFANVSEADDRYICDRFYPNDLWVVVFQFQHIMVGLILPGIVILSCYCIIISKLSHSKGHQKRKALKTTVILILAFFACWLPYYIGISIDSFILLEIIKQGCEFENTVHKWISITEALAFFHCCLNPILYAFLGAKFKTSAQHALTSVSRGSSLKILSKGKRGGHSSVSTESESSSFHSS

As for `Cc1cc(NC2CCN(C(=O)CCNCC(=O)O)CC2)nc(NCc2nc(CCCNCCCNC3CCCCC3)co2)n1` [CX807], the IC50 – broadly, the concentration that inhibits the measured activity by half – came to 65.4 ± 11.8 nM.

These data come from article PMC7582767, “Protective Effect of CXCR4 Antagonist CX807 in a Rat Model of Hemorrhagic Stroke” (International Journal of Molecular Sciences, 2020).
